# Results published in patent publication US20060183147A1, “Methods of identifying genes which modulate myelination” (Elan Pharmaceuticals, Inc., priority 2005, published 2006).
# How the values were obtained:
# [1] = test system: MOG surface expression in optic nerve oligodendrocytes; assay: MOG cell surface label, optic nerve oligodendrocytes; format: cell-based, rat; conditions: after 6 days; control oligodendrocytes up-regulated MOG
# Protocol: (§1) Purified rat optic nerve and enriched rat cortical oligodendrocytes were first grown in mitogenic medium and then switched to differentiation medium. Stimulated oligodendrocytes received the ADORA1 agonist, MECA, 24 hours later. Optic nerve oligodendrocytes were assessed 2, 4, and 6 days post MECA treatment, cortical oligodendrocytes, 3, 5, and 7 days post treatment. For the MOG cell surface label, cells were incubated with the anti-MOG antibody (1 μg/ml) for one hour at room temperature in phosphate buffered saline (PBS) containing sodium-pyruvate and glucose (Invitrogen) to ensure survival of cells during this time. Subsequently the cells were fixed, incubated in PBS containing 50% goat serum at RT for 30 minutes and incubated with a secondary antibody (FITC- or Cy3-coupled goat anti-mouse IgG antibody from Jackson Immunoresearch).
# [2] = test system: optic nerve oligodendrocytes; assay: Gene expression profiling, control vs 1-day MECA-treated ON-oligodendrocytes; format: cell-based, rat; conditions: p-value <0.05, 1.2 fold-change cutoff
# Protocol: Based on the results obtained with rhoA expression, 24 hours was selected as the first time point in a broader gene expression analysis. Total RNA was isolated from control, and MECA-stimulated oligodendrocytes were harvested 24 hours after the addition of MECA. RNA samples were generated in triplicate, each replicate generated by pooling RNA from three separate oligodendrocyte preps (one prep from 12 litters (10 pups each) of post-natal day 5 SD pups). RNA samples were analyzed by gene expression profiling using the Affymetrix GeneChip™ Rat genome 230 2.0 Array that provides coverage of approximately 30,000 transcripts, i.e., the entire transcribed rat genome. RNA submitted was amplified by Expression Analysis using the MessageAmp II aRNA kit from Ambion to generate sufficient amounts of RNA for hybridization to arrays. A2B5 and cells were plated in 6-well plates and allowed to divide for 48 hours. Approximately 500,000 cells were plated per well. Two micrograms of RNA was subsequently used for analysis.
# To identify gene expression changes occurring during myelination, total RNA was isolated from control and MECA-stimulated oligodendrocytes 24 hours after the addition of MECA. RNA samples were generated in triplicate, each replicate generated by pooling RNA from three separate oligodendrocyte preps. RNA samples (2 μg/sample) were submitted to Expression Analysis for gene expression profiling using the Affymetrix GeneChip™ Rat genome 230 2.0 Array that provides coverage of approximately 30,000 transcripts. RNA submitted using the MessageAmp II aRNA kit from Ambion to generate sufficient amounts of RNA for hybridization to arrays.
# [3] = test system: optic nerve oligodendrocytes; assay: Gene expression profiling (Affymetrix Rat genome 230 2.0), control vs 3-day MECA stimulated ON-oligodendrocytes; format: cell-based; conditions: p-value <0.05
# Description: To identify transient versus long-term gene expression changes, control and 3-day ADORA1 agonist (MECA) stimulated optic nerve oligodendrocytes were compared. As described elsewhere herein, 3 days of ADORA1 stimulation were sufficient to obtain myelin segments in the optic nerve myelination system. RNA samples were generated in triplicate, each replicate generated by pooling RNA from two separate oligodendrocyte preps (one prep from 12 litters of post-natal day 4 SD pups). RNA samples were analyzed for gene expression profiling using the Affymetrix GeneChip™ Rat genome 230 2.0 Array that provides coverage of approximately 30,000 transcripts. RNA was amplified using the MessageAmp II aRNA kit from Ambion to generate sufficient amounts of RNA for hybridization to arrays, as previously described.
# [4] = test system: optic nerve oligodendrocytes; assay: In vitro myelination assay: co-culture of retinal ganglion cells and optic nerve oligodendrocytes; format: cell-based, rat
# Protocol: Co-cultures of RGCs and optic nerve oligodendrocytes were prepared and used as follows. Purified oligodendrocytes were plated on PDL/merosin (Chemicon) substrate-coated tissue culture dishes in defined DMEM Sato medium, promoting proliferation for two days. After 2 days, the medium was switched to defined DMEM Sato medium, which contained factors to promote differentiation. Twenty-four hours after the switch to differentiation medium, ADORA1 agonists were added. Retinal ganglion cells were plated 24 hours thereafter, and the medium consisted of 50% astrocyte-conditioned medium (method see above) with DMEM Sato medium mixed with fresh defined Neurobasal™ (Invitrogen) Sato medium, containing B27™ supplement and growth factors (BDNF and CNTF), to promote retinal ganglion cell survival and 0.5% FBS. The FBS was added to help retinal ganglion cell survival. This is because forskolin, which up-regulates cAMP, could not be used when adding any ADORA agonists or antagonists, since these receptors are G-protein-coupled receptors and therefore, regulators of cAMP themselves. Cultures were grown for two weeks, with medium changes occurring every three days.
# Optic nerve or cortical oligodendrocytes were purified from postnatal day 2-day 5 old rat pups by immuno-panning with the A2B5 antibody (ATCC). Retinal ganglion cells were purified from 5 day old rats by immunopanning with the Thy1 antibody T11D7.
# Purified oligodendrocytes were plated on PDL/merosin substrate-coated tissue culture dishes in defined DMEM Sato medium, promoting proliferation for two days. After 2 days, the medium was switched to defined DMEM Sato medium, containing factors promoting differentiation. Twenty-four hours after the switch to differentiation medium, ADORA1 agonists were added. Retinal ganglion cells were plated 24 hours thereafter, and medium consisted of astrocyte-conditioned medium with DMEM Sato medium mixed with defined Neurobasal™ Sato medium, containing growth factors promoting retinal ganglion cell survival and 0.5% FBS.
# Cultures were grown for two weeks, with medium changes occurring every three days. Control co-cultures were devoid of myelin segments, whereas oligodendrocytes co-cultures with ADORA1 agonist contained myelin segments originating from approximately 90% of the oligodendrocytes in these cultures.
# To address whether the effect of the adenosine 1 receptor (ADORA1) agonist only affects oligodendrocytes, or also affects retinal ganglion cells (RGCs) to lead to myelination, purified rat optic nerve oligodendrocytes were plated on PEI-pre-coated culture dishes (6-well plates, Falcon BD) in mitogenic medium and cultured for two days. After two days, oligodendrocytes were switched to differentiation medium and the agonist MECA (Sigma) was added at a 200 μM concentration to this culture medium 24 hours later. The agonist was removed by washing the cells at 24, 48 and 72 hours, respectively, after its administration. Oligodendrocytes were subsequently taken off the PEI plates by incubation with Trypsin (535 units/ml) in Earle's Balanced Salt Solution (EBSS; Invitrogen) at 37° C. for 5 minutes, washed with PBS containing 30% FBS (Hyclone) and were plated onto RGCs grown for one week on PDL/merosin substrate. Cultures were fixed for immunohistochemistry two weeks after co-plating the oligodendrocytes with the RGCs. Since the oligodendrocytes were pre-incubated separately with the ADORA1 agonist before they were added to the RGCs, the myelin figures observed in FIG. 6 are due to the switch in the oligodendrocytes themselves from a non-myelinating to a myelinating phenotype.
# To address the question of whether it is a permanent or a reversible switch if the oligodendrocytes are cultured without neurons, oligodendrocytes were treated with ADORA1 agonist for 72 hours and kept in culture alone for another 5 days. Cultured oligodendrocytes were then removed from the PEI-coated plate and co-cultured with RGCs grown for one week in culture. […]
# [5] = test system: MOG surface expression in cortical oligodendrocytes; assay: MOG cell surface label, cortical oligodendrocytes (time course and dose response); format: cell-based, rat
# Protocol: as §1
# To determine whether the surface expression of MOG would follow the same time course as that observed for the ADORA1 agonist, MECA, in the optic nerve myelination system, oligodendrocyte-enriched cortical cells were plated on PEI-coated plates in mitogenic medium, containing PDGFAA, and NT3 as factors stimulating proliferation. After 3 days, cells were switched to differentiation medium containing CNTF and NT3. 200 μM MECA was added either the same day or 24 hours later and was incubated on the cells for 24 hours, 48 hours, 72 hours, 4 days, and 7 days continuously. The cells were surface-labeled with an antibody to MOG, after the described incubation. For the ADORA1 agonist dose response experiment, MECA was added at concentrations of 200 μM, 100 μM, 50 μM, 25 μM and 12.5 μM, 24 hours after switching to differentiation medium, and was incubated on the cells continuously. On day 7, cells were surface-labeled with an anti-MOG antibody.
# [6] = test system: cortical oligodendrocytes; assay: Gene expression profiling (Affymetrix Rat 230 2.0), control vs 1-day MECA stimulated cortical oligodendrocytes; format: cell-based
# Description: As a second filter to determine which genes were commonly regulated between pure optic nerve and enriched cortical oligodendrocytes, gene expression analysis comparing non-myelinating cortical oligodendrocytes with 1-day MECA induced cortical oligodendrocytes committed to myelination was made. Since cortical oligodendrocyte cell preparations yield larger numbers of cells, determining overlap between 1-day MECA treated ON-oligodendrocytes and 1-day MECA treated cortical oligodendrocytes help determine if use of cortical oligodendrocytes for future experiments to test genes of interest is a feasible option. Cortical oligodendrocytes were isolated from 2 litters of newborn SD rat pups. RNA for replicates were isolated from the cells which were plated on 3 separate 6-well tissue culture plates (approximately 500,000 cells per well) with control and treated cells included in separate wells on each plate. The important caveat to keep in mind when comparing gene expression in cortical oligodendrocytes with ON-oligodendrocytes is that the cortical oligodendrocytes are not a pure cell population. Cortical oligodendrocytes comprise approximately 80% oligodendrocytes and about 20% astrocytes, with some neuronal cells. Total RNA was generated in triplicate and hybridized to Affymetrix GeneChip™ Rat 230 2.0 arrays with approximately 30,000 genes. RNA submitted for analysis was amplified using the MessageAmp II aRNA kit from Ambion to generate sufficient amounts of RNA for hybridization to arrays and to keep sample preparation conditions similar to 1-day control and MECA treated ON-oligodendrocytes set forth elsewhere herein. Table 2 provides a summary of differentially regulated genes from comparison of control and 1-day MECA stimulated cortical oligodendrocytes.
# [7] = test system: rhoA expression in rat optic nerve oligodendrocytes; assay: rhoA expression by Quantitative RT-PCR in MECA-treated oligodendrocytes; format: cell-based
# Protocol: Primers and probes were designed using the Primer Express software from Applied Biosystems. Probes were designed with 6-FAM as fluorophore at the 5′end and TAMRA as quencher at the 3′ end. QRT-PCR reactions were set up as a one-step reaction using 20 ng of total RNA as template, and included 1× Taqman™ buffer, 5 mM MgCl2, 1.5 mM dNTP mix, 300 nM forward and reverse primers, […] Taqman™ probe, 20 units RNase inhibitor, 5 units Multiscribe™ MuLV reverse transcriptase and 2 units AmpliTaq™ Gold DNA polymerase in a 50 microliter reaction. All reagents used were from Applied Biosystems. Reactions were run on a ABI 7500 using the following cycling conditions: “Hold” at 48° C. for 30 minutes, “Hold” at 95 for 10 minutes, “Denature” at 95° C. for 15 seconds, and “Anneal/Extend” at 60° C. for 1 minute. The last two steps were repeated for 40 cycles.
# RhoA is a member of the Ras superfamily of small GTPases and functions as a GDP/GTP—regulated binary switch that regulates signal transduction pathways controlling actin cytoskeletal reorganization. […] Expression of rhoA was determined by Quantitative RT-PCR in oligodendrocytes treated with MECA or untreated for various times, as set forth below. […] Quantitative RT-PCR was set up as per standard protocol as a single step reaction. […]
# [8] = test system: cortical oligodendrocytes; conditions: added to the co-cultures; cited from earlier work
compound,measurement,setting,value
"CNC(=O)[C@H]1O[C@@H](n2cnc3c(N)ncnc32)[C@H](O)[C@@H]1O [MECA, 5′-N-methylcarboxamidoadenosine]",MOG protein expression on the cell surface,[1],remained low
same,overlap of differentially regulated genes between ON- and cortical oligodendrocytes,[2],414 genes
same,total differentially regulated genes in the group comparison,[2],1831 genes
same,genes exclusive to ON-oligodendrocytes,[2]; versus cortical oligodendrocytes,1417 genes
same,"differentially regulated genes, fold change >1.1 fold",[3],2721 genes
same,"differentially regulated genes, fold change >1.2 fold",[3],2428 genes
same,"differentially regulated genes, fold change >1.5 fold",[3],1021 genes
same,down-regulated changes,[3],52%
same,up-regulated changes,[3],48%
same,amount of myelin figures with continuous agonist,[4]; MECA present throughout the two weeks of co-culture with RGCs,optimal amount of myelin figures
same,myelin formation versus control cultures,[4]; after eight days in co-culture,myelin was observed covering the whole length of an axon
same,myelin formation versus control cultures,[4]; after five days in co-culture,no significant difference
same,myelin formation versus control cultures,[4]; after two weeks in co-culture,the segments (internodes) form
same,switch from non-myelinating to myelinating phenotype: permanent or reversible,"[4]; agonist 72 hours, then 5 days in culture alone, then co-culture with RGCs two weeks",permanent switch
same,doses that would not produce myelin segments,[4]; optic nerve myelination system dose-response,below 100 μM
same,time MECA must be present to repress MOG surface expression,[5]; 200 μM MECA,at least 72 hours
same,MOG protein expression on the cell surface,"[5]; after 7 days, control oligodendrocytes up-regulated MOG",remained low
same,concentrations insufficient to repress MOG surface expression,"[5]; continuous incubation, surface label on day 7",below 100 μM
same,"differentially regulated genes, fold change >1.1 fold",[6]; p-value <0.05,1969 genes
same,"differentially regulated genes, fold change >1.2 fold",[6]; p-value <0.05,1425 genes
same,"differentially regulated genes, fold change >1.5 fold",[6]; p-value <0.05,252 genes
same,down-regulated changes,[6]; p-value <0.05,49%
same,up-regulated changes,[6]; p-value <0.05,51%
same,total differentially regulated genes in the group comparison,"[6]; p-value <0.05, 1.2 fold-change cutoff",1339 genes
same,genes exclusive to cortical oligodendrocytes,"[6]; p-value <0.05, 1.2 fold-change cutoff, versus ON-oligodendrocytes",925 genes
same,rhoA expression compared to control (untreated),"[7]; day 1 of MECA treatment, n=3",two-fold reduction
same,rhoA expression compared to control (untreated),"[7]; other time points (6 hours, 16 hours, 2 days, 3 days)",No significant differences
Nc1ncnc2c1ncn2[C@@H]1O[C@H](CO)[C@@H](O)[C@H]1O [adenosine],adenosine responsiveness as measured by percentage of myelination,[4]; early versus late stage of oligodendrocyte differentiation,more responsive to adenosine at the early stage of differentiation
same,oligodendrocytes establishing segments of myelin on individual axons,"[4]; in the presence of adenosine or ADORA1 agonist, co-culture grown two weeks, control devoid of myelin segments",approximately 90%
same,amount of myelin observed,[8],increased the amount of myelin observed
